What was measured:
[1] = Plasma stability, human plasma; format: in vitro ADME; settings: up to 120 min, read-out: Plasma stability, t1/2 (min), human
[2] = molecular target: T1, LXRα (Homo sapiens, UniProt Q13133); experiment: LXRα luciferase reporter assay, agonistic and antagonistic setups; format: cell-based; settings: prototype ligand GW3965
T1 construct: expressed in transfected cells
Description: (§1) For the farnesoid X receptor (FXR) luciferase gene reporter assay, the full-length expression vector was paired with pFXRE-luc luciferase construct. The p1A1-luc construct was used in the aryl hydrocarbon receptor (AhR) assays with pRL-TK for normalization. Gal4-LXR-α/β, and Gal4-PPAR-γ constructs were used with the pGAL4 UAS-luc construct. For the VDR assay, expression vector pSG5-hVDR together with pVDRE-luc constructs was used. Firefly and Renilla luciferase activities were analyzed using a Dual reporter assay (Promega). For the nuclear receptor assays, prototype ligands were used at the following concentrations: Calcitriol for VDR (100 nM), GW3965 for LXRα and LXRβ (10 μM), 6-OCA for FXR (1 μM), fenofibrate for PPARα (10 μM), estradiol for ERα and β (10 μM), rosiglitazone for PPARγ (10 μM), 3-MC for AhR (5 μM), and TCPOBOP for mCAR (10 μM). Detailed descriptions and protocols are detailed in our recent publication. ,

[3] = molecular target: T2, PPARγ (Homo sapiens, UniProt P37231); experiment: PPARγ agonist reporter assay; format: cell-based; settings: 10 µM MI891
T2 construct: expressed in transfected cells
Description: as §1, with “publication. , […]” for “publication. ,”
hydrophobic interactions. (F) Superimposed diagram of PXR bound with agonist (SJPYT-328) and antagonists (MI891 and SJPYT-331) to differentiate the agonist and antagonist interactions with helix 12 (H12). The interaction of the agonist with PXR residue (L428) is circled. (G) Extended nuclear receptor selectivity profile. […]

T2 sequence (P37231 238-505 limits assumed, species assumed): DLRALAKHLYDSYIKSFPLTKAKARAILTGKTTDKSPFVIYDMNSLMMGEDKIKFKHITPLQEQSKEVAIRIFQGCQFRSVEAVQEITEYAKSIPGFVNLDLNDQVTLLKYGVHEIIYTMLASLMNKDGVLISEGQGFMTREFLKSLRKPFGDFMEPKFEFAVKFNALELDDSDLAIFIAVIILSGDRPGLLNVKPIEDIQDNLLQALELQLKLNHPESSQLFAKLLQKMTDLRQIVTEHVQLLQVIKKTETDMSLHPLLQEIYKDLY
T1 sequence (Q13133 209-447 limits assumed): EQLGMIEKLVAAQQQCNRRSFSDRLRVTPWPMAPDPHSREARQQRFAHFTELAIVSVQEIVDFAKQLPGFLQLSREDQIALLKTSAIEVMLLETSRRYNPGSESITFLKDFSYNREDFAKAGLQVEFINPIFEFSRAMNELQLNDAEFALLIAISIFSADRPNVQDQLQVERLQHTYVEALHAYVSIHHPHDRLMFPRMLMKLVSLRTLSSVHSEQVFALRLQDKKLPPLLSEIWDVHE

Q: Which half-life [1] does the source give for NC(=O)c1cc(Cn2cc(-c3c(-c4ccc(Cl)cc4)nc4c(F)cc(F)cn34)nn2)ccc1Cl [Compound 11, 2-Chloro-5-((4-(2-(4-chlorophenyl)-6,8-difluoroimidazo[1,2-a]pyridin-3-yl)-1H-1,2,3-triazol-1-yl)methyl)-benzamide] here?
A: Its half-life is greater than 120 min.

Q: What about the “agonistic or antagonistic activity on LXRα” value [2] of the same molecule?
A: The value was “no significant agonistic or antagonistic activities”.

Q: What about the “agonistic effect on PPARγ” value [3] of the same molecule?
A: The value was “no agonistic effects”.
